In the first assay the target is T1, estrogen receptor (Homo sapiens, UniProt P03372).
T1 construct: expressed in transfected cells; host or cells: HEK293 (Gibco 293-H), transient transfection with FuGENE HD
T1 sequence (P03372 1-595): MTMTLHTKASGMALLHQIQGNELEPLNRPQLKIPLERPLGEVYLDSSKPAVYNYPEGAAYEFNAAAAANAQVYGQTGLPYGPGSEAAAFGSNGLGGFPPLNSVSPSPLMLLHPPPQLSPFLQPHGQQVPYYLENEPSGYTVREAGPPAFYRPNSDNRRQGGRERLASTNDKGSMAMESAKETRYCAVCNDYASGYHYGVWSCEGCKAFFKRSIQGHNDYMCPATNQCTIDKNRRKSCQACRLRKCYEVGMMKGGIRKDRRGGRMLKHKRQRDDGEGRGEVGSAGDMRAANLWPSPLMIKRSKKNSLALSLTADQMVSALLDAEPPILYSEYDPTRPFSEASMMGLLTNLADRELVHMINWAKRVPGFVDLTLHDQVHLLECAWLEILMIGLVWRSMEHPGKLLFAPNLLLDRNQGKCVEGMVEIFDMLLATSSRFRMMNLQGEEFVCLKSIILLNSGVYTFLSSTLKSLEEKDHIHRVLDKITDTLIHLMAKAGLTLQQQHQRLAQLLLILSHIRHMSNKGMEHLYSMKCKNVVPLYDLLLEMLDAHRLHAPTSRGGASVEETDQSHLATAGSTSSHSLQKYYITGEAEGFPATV
Nature of the assay: NanoBRET screening of ARCS (binding assay with washout) in transfected HEK293 cells. As to conditions: HEK293 cells transfected with NanoLuc-target fusion, estrogen receptor. On the procedure: Human embryonic kidney 293-H (HEK 293, Gibco 293-H, #11631017) cell lines are maintained in Dulbecco's Modified Eagle Medium, high glucose, pyruvate (DMEM, Gibco, #11995065) supplemented with 10% fetal bovine serum (FBS, Gibco, #10082147) and 1× penicillin-streptomycin (100× solution, Gibco, #15140148) at 37° C. and 5% CO2 in a water-saturated incubator. Cell are trypsinized using 0.05% or 0.25% Trypsin-EDTA solution (Trypsin-EDTA, phenol red, Gibco, #25200056 (0.25%) or #25300054). Opti-MEM media supplemented with 10% fetal bovine serum (Opti-MEM I reduced serum media, no phenol red, Gibco, #11058021) is used for culturing cells overnight for NanoBRET readout experiments.
HEK293 cells are cultivated appropriately prior to assay. The medium from cell flask is removed via aspiration, washed 1× with PBS followed by aspiration, trypsinized, and cells are allowed to dissociate from the flask. Trypsin is neutralized using growth medium and cells are pelleted via centrifugation at 200×g for 5 minutes. The medium is aspirated and the cells are resuspended into a single cell suspension using Opti-MEM I supplemented with 10% FBS. The cell density is adjusted to 2×10^5/mL in Opti-MEM I supplemented with 10% FBS in a sterile, conical tube. The cells are transfected and aliquoted directly in a 96-well plate for the NanoBRET assay the next day, and therefore, the cells are cultured overnight in Opti-MEM. The cells are also transfected in bulk and dispensed into a 96-well plate to allow cells to adhere to the plate overnight, thereby enabling washout studies.
The lipid:DNA complexes are prepared as follows:
A 10 μg/mL solution of DNA is prepared in Opti-MEM without serum. This solution contains the following ratios of carrier DNA and DNA encoding NanoLuc fused to the biological target. Serial dilution steps may be warranted to accurately dilute the NanoLuc fusion DNA. Added, in order, the following reagents to a sterile polystyrene test tube: 1 mL of Opti-MEM without phenol red; 9.0 μg/mL of carrier DNA; 1.0 μg/mL of NanoLuc fusion DNA (for some targets, the amount is less). The reagents are mixed thoroughly. 30 μL of FuGENE HD is added into each mL of DNA mixture to form lipid:DNA complex. […] It is mixed by pipetting up and down 5-10 times and incubated at room temperature for 20 minutes to allow complexes to form. 1 part (e.g. 1 mL) of lipid:DNA complex is mixed with 20 parts (e.g. 20 mL) of HEK293 cells in suspension at 2×10^5/mL and mixed gently by pipetting up and down 5 times in a sterile, conical tube. Larger or smaller bulk transfections are scaled accordingly, using this ratio. 100 μL cells+lipid:DNA complex is dispensed into a sterile, tissue-culture treated 96-well plate (20,000 cells/well), and incubated at least 16 hours to allow expression. The cells are incubated in a 37° C.+5% CO2 incubator for >16 hrs. A serially diluted inhibitor or test compound is prepared at 100× final concentration in 100% DMSO. The serially diluted inhibitor stock is prepared in PCR plates. 1 μL per well of 100× serially diluted inhibitor/test compound is added to the cells in 96-well plates that have been transiently transfected overnight and mixed by tapping the plate by hand. The plate is incubated at 37° C.+5% CO2 incubator overnight. A 1× solution of substrate mix (500× stock) and appropriate concentration of tracer is prepared in Opti-Mem. The cells are washed by setting a plate washer to the 96 well plate 5× in PBS pH 7.4 by adding 200 μL PBS each time. The cells are incubated at 37° C. for 2 hours. 100 μL of the 1× Substrate-Tracer solution is added and the 96 well plate is gently tapped to mix. The plate on plate reader is read every hour for the next 6 hours.
The binding assays of some ARCS are shown below. Compound 2-314 formed a covalent bond with an estrogen receptor of <20%. Compounds 2-302 and 2-303 formed a covalent bond with an estrogen receptor from about 50% to 70%. […]
Background: BRET reads energy transfer from a luciferase to a nearby fluorophore.
With `CC1Cc2c([nH]c3ccccc23)C(c2c(F)cc(OCCNCC=CC(=O)N(C)C)nc2F)N1CC(C)(C)F` (centres unmarked) [Compound 2-102], the “Binding Potential (Percent inhibition)” value is reported as “+++ (+++ 80-90%)”.
On the same count and under the same terms, with `CC1Cc2c([nH]c3ccccc23)C(c2c(F)cc(OCCNCC=CC(=O)N(C)C)cc2F)N1CC(C)(C)F` (centres unmarked) [Compound 2-103] the entry was “++++ (++++ >90%)”; with `C[C@@H]1Cc2c([nH]c3ccccc23)[C@@H](c2c(F)cc(OCCNC/C=C/C(=O)N(C)C)cc2F)N1CC(C)(F)CO` (some centres unmarked) [Compound 2-106], “++++ (++++ >90%)”; with `CC1Cc2c([nH]c3ccccc23)C(c2ccc(NCCNCC=CC(=O)N(C)C)nc2)N1CC(C)(C)F` (centres unmarked) [Compound 2-107], “+++ (+++ 80-90%)”.
`CC1Cc2c([nH]c3ccccc23)C(c2c(F)cc(NCCNCC=CC(=O)N(C)C)nc2F)N1CC(C)(C)F` (centres unmarked) [Compound 2-108]: the “Binding Potential (Percent inhibition)” value is “+++ (+++ 80-90%)”.
On to `CC1Cc2c([nH]c3ccccc23)C(c2c(F)cc(NCCNCC=CC(=O)N(C)C)cc2F)N1CC(C)(C)F` (centres unmarked) [Compound 2-109], for which the “Binding Potential (Percent inhibition)” value is recorded as “+++ (+++ 80-90%)”.
`CC1Cc2c([nH]c3cc(F)ccc23)C(c2c(F)cc(OCCNCC=CC(=O)N(C)C)cc2F)N1CC(C)(C)F` (centres unmarked) [Compound 2-115]: the “Binding Potential (Percent inhibition)” value is reported as “++++ (++++ >90%)”.
On to `CC1Cc2c([nH]c3cc(F)ccc23)C(c2c(F)cc(OCCNCC=CC(=O)N(C)C)cc2F)N1CC(C)(F)CO` (centres unmarked) [Compound 2-118], for which the “Binding Potential (Percent inhibition)” value is given as “++++ (++++ >90%)”.
For `C#CCCCNC(=O)C=CCNCCOc1cc(F)c(C2c3[nH]c4ccccc4c3CC(C)N2CC(C)(C)F)c(F)c1` (centres unmarked) [Compound 2-300], the “Binding Potential (Percent inhibition)” value was “+++ (+++ 80-90%)”.
Consider `CC1Cc2c([nH]c3ccccc23)C(c2c(F)cc(N)cc2F)N1CC(C)(C)F` (centres unmarked) [Compound 2-301], for which the “Binding Potential (Percent inhibition)” value was “+++ (+++ 80-90%)”.
Regarding `CC1Cc2c([nH]c3ccccc23)C(c2ccc(C=CCNCC=CC(=O)N(C)C)nc2)N1CC(C)(C)F` (centres unmarked) [Compound 2-302], the “Binding Potential (Percent inhibition)” value is “++ (++ 50-70%)”.
As for `CC1Cc2c([nH]c3ccccc23)C(c2c(F)cc(C=CCNCC=CC(=O)N(C)C)cc2F)N1CC(C)(C)F` (centres unmarked) [Compound 2-303], the “Binding Potential (Percent inhibition)” value was “++ (++ 50-70%)”.
`CC1Cc2c([nH]c3ccccc23)C(c2c(F)cc(C=CCNCC=CC(=O)N(C)C)nc2F)N1CC(C)(C)F` (centres unmarked) [Compound 2-304]: the “Binding Potential (Percent inhibition)” value is on record as “++++ (++++ >90%)”.
Consider `C=CC(=O)NCCc1ccc(C2c3[nH]c4ccccc4c3CC(C)N2CC(C)(C)F)cn1` (centres unmarked) [Compound 2-305], for which the “Binding Potential (Percent inhibition)” value is on record as “++++ (++++ >90%)”.
`C=CC(=O)NCCc1cc(F)c(C2c3[nH]c4ccccc4c3CC(C)N2CC(C)(C)F)c(F)n1` (centres unmarked) [Compound 2-306]: the “Binding Potential (Percent inhibition)” value is given as “++++ (++++ >90%)”.
Still for that read-out and setting: with `C=CC(=O)NCCc1cc(F)c(C2c3[nH]c4ccccc4c3CC(C)N2CC(C)(C)F)c(F)c1` (centres unmarked) [Compound 2-307] the entry was “++++ (++++ >90%)”; with `CC#CC(=O)NCCc1ccc(C2c3[nH]c4ccccc4c3CC(C)N2CC(C)(C)F)cn1` (centres unmarked) [Compound 2-308], “++++ (++++ >90%)”; with `CC#CC(=O)NCCc1cc(F)c(C2c3[nH]c4ccccc4c3CC(C)N2CC(C)(C)F)c(F)n1` (centres unmarked) [Compound 2-309], “++++ (++++ >90%)”.
Turning to `CC#CC(=O)NCCc1cc(F)c(C2c3[nH]c4ccccc4c3CC(C)N2CC(C)(C)F)c(F)c1` (centres unmarked) [Compound 2-310], the “Binding Potential (Percent inhibition)” value was “++++ (++++ >90%)”.
On the same count and under the same terms, with `C#CCN(C)C(=O)C=CCNCCOc1cc(F)c(C2c3[nH]c4ccccc4c3CC(C)N2CC(C)(C)F)c(F)c1` (centres unmarked) [Compound 2-311] the entry was “++++ (++++ >90%)”; with `CC1Cc2c([nH]c3ccccc23)C(c2ccc(N)cc2)N1CC(C)(C)F` (centres unmarked) [Compound 2-312], “++++ (++++ >90%)”; with `CC1Cc2c([nH]c3ccccc23)C(c2ccc(N)nc2)N1CC(C)(C)F` (centres unmarked) [Compound 2-314], “+ (+ <20%)”.
Same read-out and setting: with `CC1Cc2c([nH]c3ccccc23)C(c2ccc(OCCNCC=CC(=O)N(C)C)nc2)N1CC(C)(C)F` (centres unmarked) [Compound 2-315] the entry was “++++ (++++ >90%)”.
As for `C=CC(=O)NCCOc1ccc(C2c3[nH]c4ccccc4c3CC(C)N2CC(C)(C)F)cn1` (centres unmarked) [Compound 2-316], the “Binding Potential (Percent inhibition)” value was “++++ (++++ >90%)”.

Still in this assay, the particulars now being: HEK293 cells transfected with NanoLuc-target fusion, overnight incubation, washout.
Consider `CC1Cc2c([nH]c3ccccc23)C(c2ccc(N)nc2)N1CC(C)(C)F` (centres unmarked) [Compound 2-314], for which the “activity of an estrogen receptor is inhibited” value is less than 20% and the “formed a covalent bond with an estrogen receptor” value is given as less than 20%.

The record behind these values is patent US20220370625A1, “THERAPEUTIC CONJUGATES” (Totus Medicines Inc., priority 2019, published 2022).
